Reference: ChEMBL document CHEMBL1201862, “PubChem BioAssay data set” (2004)
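Following 48 hours of exposure in 96-well plates, responses at five concentrations were used to interpolate endpoints linearly. Here, GI50 denotes the concentration required for 50% inhibition of growth.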 Calls of active or inactive are those of the source. Cut-off read from the data, not from the text of the source: active = GI50 up to about 1.1 µM and inactive = higher.

Assays:
Test in all cases: NCI tumour cell line growth inhibition, 48 h
MDA-N = tested on: MDA-N
HCT-15 = tested on: HCT-15
Malme-3M = tested on: Malme-3M
MDA-MB-231 = tested on: MDA-MB-231
MCF7 = tested on: MCF7
NCI-H23 = tested on: NCI-H23
ACHN = tested on: ACHN
786-0 = tested on: 786-0
RPMI-8226 = tested on: RPMI-8226
PC-3 = tested on: PC-3
SK-MEL-5 = tested on: SK-MEL-5
UO-31 = tested on: UO-31
TK-10 = tested on: TK-10
HOP-62 = tested on: HOP-62
LOX IMVI = tested on: LOX IMVI
SF-539 = tested on: SF-539
BT-549 = tested on: BT-549
T47D = tested on: T47D
SR = tested on: SR
NCI-H522 = tested on: NCI-H522
SW-620 = tested on: SW-620
SK-OV-3 = tested on: SK-OV-3
HT-29 = tested on: HT-29
NCI-H226 = tested on: NCI-H226
HL-60 = tested on: HL-60
UACC-257 = tested on: UACC-257
SNB-75 = tested on: SNB-75
A549 = tested on: A549
SF-268 = tested on: SF-268
SF-295 = tested on: SF-295
CCRF-CEM = tested on: CCRF-CEM
EKVX = tested on: EKVX
M14 = tested on: M14
SK-MEL-28 = tested on: SK-MEL-28
DU-145 = tested on: DU-145
MDA-MB-435 = tested on: MDA-MB-435
OVCAR-8 = tested on: OVCAR-8
A498 = tested on: A498
HCT-116 = tested on: HCT-116
COLO 205 = tested on: COLO 205
Hs-578T = tested on: Hs-578T
SNB-19 = tested on: SNB-19
SN12C = tested on: SN12C
IGROV-1 = tested on: IGROV-1
NCI-H460 = tested on: NCI-H460
CAKI-1 = tested on: CAKI-1
KM12 = tested on: KM12
MOLT-4 = tested on: MOLT-4
HCC 2998 = tested on: HCC 2998
K562 = tested on: K562
UACC-62 = tested on: UACC-62
OVCAR-3 = tested on: OVCAR-3
NCI/ADR-RES = tested on: NCI/ADR-RES
OVCAR-4 = tested on: OVCAR-4
OVCAR-5 = tested on: OVCAR-5
U-251 = tested on: U-251
SK-MEL-2 = tested on: SK-MEL-2
HOP-92 = tested on: HOP-92

Q: Which GI50 (MDA-N) does the source give for `CC1=NC(=Cc2ccc(Cl)cc2)C(=O)N1n1c(-c2ccccc2)nc2ccccc2c1=O` here?
A: The GI50 was 35.1 µM (inactive).

Q: What about the GI50 (HCT-15) of the same compound?
A: The GI50 was 44.4 µM.

Q: And the GI50 (Malme-3M)?
A: Its GI50 is 33.2 µM (inactive).

Q: What about the GI50 (MDA-MB-231) of the same compound?
A: The GI50 was 49.7 µM (inactive).

Q: What about the GI50 (MCF7) of the same compound?
A: Its GI50 is 28.2 µM (inactive).

Q: What about the GI50 (NCI-H23) of the same compound?
A: The GI50 was 26.3 µM (inactive).

Q: And the GI50 (ACHN)?
A: Its GI50 is 22.2 µM (inactive).

Q: What about the GI50 (786-0) of the same compound?
A: The GI50 was 40.6 µM (inactive).

Q: What about the GI50 (RPMI-8226) of the same compound?
A: The GI50 was 34.1 µM (inactive).

Q: What about the GI50 (PC-3) of the same compound?
A: Its GI50 is 24.3 µM (inactive).

Q: What about the GI50 (SK-MEL-5) of the same compound?
A: Its GI50 is 36.7 µM (inactive).

Q: And the GI50 (UO-31)?
A: The GI50 was 37.2 µM (inactive).

Q: What about the GI50 (TK-10) of the same compound?
A: Its GI50 is 51.6 µM (inactive).

Q: And the GI50 (HOP-62)?
A: The GI50 was 47.2 µM (inactive).

Q: What about the GI50 (LOX IMVI) of the same compound?
A: The GI50 was 38.5 µM (inactive).

Q: And the GI50 (SF-539)?
A: Its GI50 is 35.1 µM (inactive).

Q: And the GI50 (BT-549)?
A: Its GI50 is 40.6 µM (inactive).

Q: And the GI50 (T47D)?
A: Its GI50 is 25.4 µM (inactive).

Q: What about the GI50 (SR) of the same compound?
A: The GI50 was 33.5 µM (inactive).

Q: What about the GI50 (NCI-H522) of the same compound?
A: Its GI50 is 6.92 µM (inactive).

Q: And the GI50 (SW-620)?
A: Its GI50 is 57.1 µM (inactive).

Q: And the GI50 (SK-OV-3)?
A: Its GI50 is 38.5 µM (inactive).

Q: What about the GI50 (HT-29) of the same compound?
A: The GI50 was 37 µM (inactive).

Q: And the GI50 (NCI-H226)?
A: Its GI50 is > 100 µM (inactive).

Q: And the GI50 (HL-60)?
A: The GI50 was 26.3 µM (inactive).

Q: And the GI50 (UACC-257)?
A: Its GI50 is 25 µM (inactive).

Q: And the GI50 (SNB-75)?
A: The GI50 was 38.6 µM (inactive).

Q: What about the GI50 (A549) of the same compound?
A: Its GI50 is 39.8 µM (inactive).

Q: What about the GI50 (SF-268) of the same compound?
A: Its GI50 is 51.9 µM (inactive).

Q: And the GI50 (SF-295)?
A: The GI50 was 40.9 µM (inactive).

Q: And the GI50 (CCRF-CEM)?
A: Its GI50 is 37.8 µM (inactive).

Q: What about the GI50 (EKVX) of the same compound?
A: The GI50 was 27.2 µM (inactive).

Q: And the GI50 (M14)?
A: The GI50 was 39.4 µM (inactive).

Q: And the GI50 (SK-MEL-28)?
A: The GI50 was 51.4 µM (inactive).

Q: And the GI50 (DU-145)?
A: Its GI50 is 38.1 µM (inactive).

Q: And the GI50 (MDA-MB-435)?
A: Its GI50 is 43.4 µM (inactive).

Q: What about the GI50 (OVCAR-8) of the same compound?
A: Its GI50 is 39.4 µM (inactive).

Q: What about the GI50 (A498) of the same compound?
A: Its GI50 is 24.6 µM (inactive).

Q: What about the GI50 (HCT-116) of the same compound?
A: The GI50 was 34.8 µM (inactive).

Q: And the GI50 (COLO 205)?
A: The GI50 was 32.4 µM (inactive).

Q: And the GI50 (Hs-578T)?
A: Its GI50 is 18.1 µM (inactive).

Q: And the GI50 (SNB-19)?
A: The GI50 was 48.6 µM (inactive).

Q: What about the GI50 (SN12C) of the same compound?
A: The GI50 was 43.4 µM (inactive).

Q: What about the GI50 (IGROV-1) of the same compound?
A: Its GI50 is 31.6 µM (inactive).

Q: What about the GI50 (NCI-H460) of the same compound?
A: The GI50 was 23 µM (inactive).

Q: And the GI50 (CAKI-1)?
A: Its GI50 is 17.8 µM (inactive).

Q: And the GI50 (KM12)?
A: The GI50 was 36.4 µM (inactive).

Q: And the GI50 (MOLT-4)?
A: The GI50 was 34.5 µM (inactive).

Q: And the GI50 (HCC 2998)?
A: Its GI50 is 38.8 µM (inactive).

Q: And the GI50 (K562)?
A: The GI50 was 34.8 µM (inactive).

Q: And the GI50 (UACC-62)?
A: Its GI50 is 33.2 µM (inactive).

Q: Which results are given for `CCCCCCCCCCCCCCCCCCNc1ccn(C2OC(CO)C(OP(=O)(O)OCC(O)COP(=O)(O)OCC3OC(n4cc(F)c(NCCCCCCCCCCCCCCCCCC)nc4=O)CC3O)C2O)c(=O)n1` (stereo unspecified)?
A: GI50 (MDA-N): > 50 µM (inactive); GI50 (HCT-15): > 50 µM; GI50 (Malme-3M): > 50 µM (inactive); GI50 (MDA-MB-231): > 50 µM (inactive); GI50 (MCF7): > 50 µM (inactive); GI50 (NCI-H23): > 50 µM (inactive); GI50 (ACHN): > 50 µM (inactive); GI50 (786-0): > 50 µM (inactive); GI50 (RPMI-8226): > 50 µM (inactive); GI50 (PC-3): > 50 µM (inactive); GI50 (SK-MEL-5): > 50 µM (inactive); GI50 (OVCAR-3): > 50 µM (inactive); GI50 (UO-31): > 50 µM (inactive); GI50 (TK-10): > 50 µM (inactive); GI50 (HOP-62): > 50 µM (inactive); GI50 (LOX IMVI): > 50 µM (inactive); GI50 (NCI/ADR-RES): > 50 µM (inactive); GI50 (SF-539): > 50 µM (inactive); GI50 (BT-549): > 50 µM (inactive); GI50 (T47D): > 50 µM (inactive); GI50 (OVCAR-4): > 50 µM (inactive); GI50 (OVCAR-5): > 50 µM (inactive); GI50 (NCI-H522): > 50 µM (inactive); GI50 (SW-620): > 50 µM (inactive); GI50 (SK-OV-3): > 50 µM (inactive); GI50 (HT-29): > 50 µM (inactive); GI50 (NCI-H226): > 50 µM (inactive); GI50 (HL-60): > 50 µM (inactive); GI50 (UACC-257): > 50 µM (inactive); GI50 (SNB-75): > 50 µM (inactive); GI50 (A549): > 50 µM (inactive); GI50 (SF-268): > 50 µM (inactive); GI50 (SF-295): > 50 µM (inactive); GI50 (EKVX): > 50 µM (inactive); GI50 (M14): > 50 µM (inactive); GI50 (SK-MEL-28): > 50 µM (inactive); GI50 (U-251): > 50 µM (inactive); GI50 (DU-145): > 50 µM (inactive); GI50 (MDA-MB-435): > 50 µM (inactive); GI50 (SK-MEL-2): > 50 µM (inactive); GI50 (OVCAR-8): > 50 µM (inactive); GI50 (A498): > 50 µM (inactive); GI50 (HCT-116): > 50 µM (inactive); GI50 (COLO 205): > 50 µM (inactive); GI50 (Hs-578T): > 50 µM (inactive); GI50 (SNB-19): > 50 µM (inactive); GI50 (SN12C): > 50 µM (inactive); GI50 (IGROV-1): > 50 µM (inactive); GI50 (NCI-H460): > 50 µM (inactive); GI50 (HOP-92): > 50 µM (inactive); GI50 (CAKI-1): > 50 µM (inactive); GI50 (KM12): > 50 µM (inactive); GI50 (HCC 2998): > 50 µM (inactive); GI50 (K562): > 50 µM (inactive); GI50 (UACC-62): > 50 µM (inactive)
